Test results reported in patent US20100087439A1, “NOVEL […]/OR THERAPEUTIC AGENT FOR NEUROPATHIC PAIN” (ASTELLAS PHARMA INC., priority 2007, published 2010).
Read-outs that look alike come from different tables or passages of the source.

Legend:
[1] = tested on: L5/L6 spinal nerve ligation models; assay type: in vivo, male SD rats
Description: The evaluation of an analgesic effect on neuropathic pain was performed according to the method of Kim et al. using L5/L6 spinal nerve ligation models. That is, the left L5 and L6 sciatic nerves of male SD rats were tightly ligated with a silk thread under pentobarbital anesthesia, and thereafter, the evaluation was performed. As the assessment of pain behavior, a von Frey Test on the plantar surface of the animals was employed (Pain, vol. 50, pp. 355-363, 1992). That is, the plantar surface of the operated limb of the nerve ligation rat was stimulated by using von Frey Filament until a withdrawal response was observed, and the lowest amount of force (g) required to elicit withdrawal response was defined as a pain threshold. […] Each of a vehicle and diluted solutions obtained by diluting (±)-2-[(inden-7-yloxy)methyl]morpholine hydrochloride (indeloxazine hydrochloride), (+)-2-[(inden-7-yloxy)methyl]morpholine hydrochloride ((+)-indeloxazine hydrochloride), (−)-2-[(inden-7-yloxy)methyl]morpholine hydrochloride ((−)-indeloxazine hydrochloride), or duloxetine with a vehicle so as to give a dose of 30 mg/kg (calculated as a salt free form) was orally administered to rats in each group. The oral absorption of venlafaxine is poor, therefore, venlafaxine was intraperitoneally administered. As the vehicle, distilled water was used. A pain threshold was measured at 3 hours after administration in the case of duloxetine, and at 1 hour after administration in the case of the other compounds. An analgesic effect of each compound was examined based on recovery of the pain threshold in the each compound administration group compared with that in the vehicle administration group, as S. K. Joshi et al. described (Neuroscience, vol. 143, pp. 587-596, 2006).
The numerical values in the table indicate a mean value±standard error of the mean (SEM) of recovery ratios of thresholds of compounds when the pain threshold of the normal side paw is regarded as 100% and the pain threshold of the operated side paw is regarded as 0%.

CYP = CYP inhibitory activity; assay type: in vitro ADME; settings: no method or isoform given
[2] = oral dose of 30 mg/kg (salt free form), 1 hour after administration, Student's t-test
[3] = 30 mg/kg (calculated as a salt free form), p.o., measured 1 hour after administration, mean ± SEM, hydrochloride

Row | SMILES | recovery in the pain threshold compared with the vehicle group (in words) [1, 2] | % Effect (recovery ratio of pain threshold; normal side paw = 100%, operated side paw = 0%) [1, 3] | further results
1 | CNCC[C@H](Oc1cccc2ccccc12)c1cccs1 [Duloxetine, (S)—N-methyl-γ-(1-naphthalenyloxy)-2-thiophenepropanamine, reference compound] |  |  | % Effect (recovery ratio of pain threshold; normal side paw = 100%, operated side paw = 0%) ([1]; rat, in vivo): 49.3 ± 25.3%; recovery in the pain threshold compared with the vehicle group (in words) ([1]; rat, in vivo): a significant recovery in the threshold was not observed
2 | C1=Cc2cccc(OCC3CNCCO3)c2C1 (single isomer, unassigned; (+)) [(+)-2-[(inden-7-yloxy)methyl]morpholine] |  |  | CYP inhibitory activity (in words) (CYP): extremely weak CYP inhibitory activity
3 | C1=Cc2cccc(OCC3CNCCO3)c2C1.Cl (racemic) [(±)-Indeloxazine hydrochloride, (±)-2-[(inden-7-yloxy)methyl]morpholine hydrochloride] | significant recovery in the pain threshold |  | % Effect (recovery ratio of pain threshold; normal side paw = 100%, operated side paw = 0%) ([1]; 30 mg/kg (calculated as a salt free form), p.o., measured 1 hour after administration, mean ± SEM): 94.3 ± 24.6 %
4 | C1=Cc2cccc(OCC3CNCCO3)c2C1.Cl (single isomer, unassigned; (-)) [(−)-Indeloxazine hydrochloride, (−)-2-[(inden-7-yloxy)methyl]morpholine hydrochloride] | significant recovery in the pain threshold | 115.7 ± 22.0 % | 
5 | C1=Cc2cccc(OCC3CNCCO3)c2C1.Cl (single isomer, unassigned; (+)) [(+)-Indeloxazine hydrochloride, (+)-2-[(inden-7-yloxy)methyl]morpholine hydrochloride] | significant recovery in the pain threshold | 94.5 ± 17.0 % | 
6 | COc1ccc(C(CN(C)C)C2(O)CCCCC2)cc1 (racemic) [Venlafaxine, (±)-1-[2-(dimethylamino)-1-(4-methoxyphenyl)ethyl]cyclohexanol, reference compound] |  |  | recovery in the pain threshold compared with the vehicle group (in words) ([1]; 30 mg/kg (salt free form), intraperitoneal, 1 hour after administration, Student's t-test): a significant recovery in the threshold was not observed
